Read-outs that look alike come from different tables or passages of the source.
Key:
EhCS1 = EhCS1 (Entamoeba histolytica, UniProt O15570); assay: CS inhibitory activity, recombinant EhCS1 (acid-ninhydrin cysteine detection); type: biochemical
Description: (§1) The E. coli BL21 (DE3) cell introduced pET-EhCS (CS1, CS3) construct was used for protein expression. Each EhCSs protein was expressed by 1 mM isopropyl β-D-thiogalactopyranoside induction for 12 h at 30°C. After induction, the E. coli cell was harvested and re-suspended in the lysis buffer (50 mM Tris-HCl, pH 8.0, and 300 mM NaCl) containing 0.5 mM phenylmethylsulfonyl fluoride. The suspension was sonicated and centrifuged at 24,000 ×g for 30 min at 4°C. The histidine-tagged rEhCS proteins were purified from the supernatant fraction using a Ni^2+-NTA column and tagged proteins were eluted with 100–200 mM imidazole in 50 mM Tris-HCl, pH 8.0, and 300 mM NaCl. […].
(§2) For measurement of CS inhibitory activity, 10 μl of sample solution [dimethylsulfoxide (DMSO)/H2O = 1/1 solution] and 30 μl of reaction mixture, composed of 2 μl of 50 mM O-acetyL-L-serine, 2 μl of 50 mM Na2S, 12.5 μl of 200 mM Tris-HCl (pH 7.5), and 13.5 μl of water, was poured into each well of a flat-bottom 96-well plate. After 10 μl of enzyme solution (containing 0.1 μg of rEhCS1 or rEhCS3 in H2O) was added to each well, plates were incubated for 15 min at 37°C. The final concentrations of reagents in each well are; 2 mM O-acetyL-L-serine, 2 mM Na2S, and 50 mM Tris-HCl. The enzymatic reaction was stopped by adding 50 μl of acetic acid (>99.9%), and subsequently the reaction for cysteine detection was started by adding 50 μl of acid-ninhydrin reagent ([Gaitonde, 1967]). The mixture in each well was transferred to a 96-well PCR plate and heated at 95°C for 10 min. After the plate was cooled on ice, the mixture was transferred into a flat-bottom 96-well plate filled with 100 μl of ethanol (EtOH). Absorbance at 560 nm was measured by spectrophotometer (SH-9000Lab, Corona Electric, Ibaraki, Japan). […] To determine whether the sample interferes the acid-ninhydrin reagent reaction, 10 μl of sample solution, 10 μl of water, and 30 μl of 1 mM cysteine solution (cysteine hydrochloric acid salt in water) were mixed in a well of 96-well microtiter plate, and then 50 μl of acetic acid (>99.9%) and 50 μl of acid-ninhydrin reagent were added. The mixture was treated and measured the absorbance at 560 nm as above mentioned to check the effect of the sample to the color reaction.
(§3) Each 5 μl of DMSO solution (1 mg/ml, final concentration 100 μg/ml) of 316 library compounds and 5 μl of water (total 10 μl of DMSO/H2O = 1/1 solution per well) were poured into each well of a 96-well microtiter plate to screen for CS inhibitors. For screening microbial broths, 10 μl of the individual broth extract samples (50% EtOH solution) were poured into each well of a 96-well microtiter plate and dried up in vacuo. After drying, 10 μl of DMSO/H2O = 1/1 solution was added and dissolved. Samples showing more than 50% inhibitory activity and having no inhibitory activities against acid ninhydrin reaction were selected for further evaluation. The inhibition values were measured in duplicate or triplicate. […]; 2.0 to 250 μg/ml for deacetylkinamycin C, deoxyfrenolicin, nanaomycin A, tetracycline and patulin; 1.5 to 200 μg/ml for naphthacemycin A9; 3.1 to 400 μg/ml for xanthofulvin, terreinol and citromycetin; 0.06 to 200 μg/ml for exophillic acid.

[1] = Cytotoxicity against MRC-5 cells (WST-8); type: cell-based; details: human fibroblast cells MRC-5, 2 days
Description: (§4) Human fibroblast cells, MRC-5, were plated on 96-well flat bottom plates at a density of 1.5 × 10^4 cells/well with 100 μl of MEM medium (Life Technologies, Grand Islands, NY, USA) containing 10% fetal bovine serum (Hana-nesco Bio, Tokyo, Japan) and 1% penicillin-streptomycin (Life Technologies) and incubated at 37°C with 5% CO2 for 2 days. Test compounds in 5 μl of 50% DMSO–H2O and 100 μl of MEM medium were mixed and added to each well. After 2 days cultivation at 37°C with 5% CO2, cell density and morphological changes were observed under a microscope. After observation, 10 μl of WST-8 solution (Dojindo, Kumamoto, Japan) was added to the cells and the plate was incubated at 37°C with 5% CO2 for 2 h. Then, absorbance at 450 nm was measured by spectrophotometer (SH-9000Lab, Corona Electric). Cytotoxicity was measured in duplicate. Staurosporine (our product, in Kitasato Natural Products Library) was used as a positive (cytotoxic) compound. […]; 0.075 to 10 μg/ml for deacetylkinamycin C, deoxyfrenolicin, nanaomycin A, and naphthacemycin A9; 3.1 to 200 μg/ml for tetracycline and patulin; 9.4 to 75 μg/ml for exophillic acid. IC50 values were calculated by the equation described in the reference ([Arita-Morioka et al., 2015]).

[2] = tested on: E. histolytica clonal strain HM-1:IMSS cl6 trophozoites; assay: In vitro anti-amebic activity against trophozoites (WST-1 viability); details: 48 h
Description: Trophozoites were harvested in 3–4 days after inoculation of 1/30 to 1/12 of the total culture volume. After the cultures were chilled on ice for 5 min, trophozoites were collected by centrifugation at 500 ×g for 10 min at 4°C and washed twice with BI-S-33 medium. The obtained trophozoites were suspended in BI-S-33 medium and approximately 1 × 10^4 trophozoites in 200 μl of BI-S-33 medium were poured into each well of a 96-well plate and incubated for 2 h. Subsequently, the medium was removed and 200 μl of BI-S-33 medium or cysteine-deprived BI-S-33 medium containing 1% (v/v) penicillin/streptomycin (Life Technologies) together with test compounds (final concentrations; 0.1, 1, 10, 100 μg/ml for kerriamycin B, kerriamycin C, aggreticin, and xanthofulvin; 0.1, 1, 10, 50, 100 μg/ml for the other compounds) was added to each well and incubated under anaerobic conditions for 48 h. After incubation, the medium was removed and 90 μl of pre-warmed Opti-MEM I (Life Technologies) and 10 μl of WST-1 solution (Dojindo) were added to each well. Viability of trophozoites was detected with absorbance at 450 nm (SH-9000Lab, Corona Electric). Cytotoxicity was measured in triplicate. […] Metronidazole (Sigma–Aldrich, MO, USA) was used as positive control.

EhCS3 = EhCS3 (Entamoeba histolytica, UniProt Q401L7); assay: CS inhibitory activity, recombinant EhCS3 (acid-ninhydrin cysteine detection); type: biochemical
Description: as §1, §2, §3

semaphorin = tested on: semaphorin; design: method as in Kumagai et al., 2003; details: ref Kumagai et al., 2003; cited from earlier work
MRC-5 cells = assay: Cytotoxicity against MRC-5 cells (WST-8); type: cell-based; details: human fibroblast cells MRC-5, 2 days
Description: as §4

[3] = recombinant EhCS1, 15 min at 37°C, 2 mM O-acetyl-L-serine, 2 mM Na2S, read-out: IC50 CS1
[4] = Entamoeba histolytica, read-out: Cytotoxicity against Entamoeba histolytica IC50, Cys (+)
[5] = Entamoeba histolytica, read-out: Cytotoxicity against Entamoeba histolytica IC50, Cys (–)
[6] = recombinant EhCS3, 15 min at 37°C, 2 mM O-acetyl-L-serine, 2 mM Na2S, read-out: IC50 CS3

Sequence of EhCS1 (O15570 entry or part of it): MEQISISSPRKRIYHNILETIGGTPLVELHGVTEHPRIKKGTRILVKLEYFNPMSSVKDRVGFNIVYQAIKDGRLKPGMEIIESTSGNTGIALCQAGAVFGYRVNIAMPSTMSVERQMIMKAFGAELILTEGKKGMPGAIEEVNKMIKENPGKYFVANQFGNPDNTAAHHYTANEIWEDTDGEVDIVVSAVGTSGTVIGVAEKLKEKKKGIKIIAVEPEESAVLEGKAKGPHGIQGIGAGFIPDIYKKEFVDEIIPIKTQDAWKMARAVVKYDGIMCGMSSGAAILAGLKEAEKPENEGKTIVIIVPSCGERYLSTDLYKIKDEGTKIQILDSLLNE
Sequence of EhCS3 (Q401L7 entry or part of it): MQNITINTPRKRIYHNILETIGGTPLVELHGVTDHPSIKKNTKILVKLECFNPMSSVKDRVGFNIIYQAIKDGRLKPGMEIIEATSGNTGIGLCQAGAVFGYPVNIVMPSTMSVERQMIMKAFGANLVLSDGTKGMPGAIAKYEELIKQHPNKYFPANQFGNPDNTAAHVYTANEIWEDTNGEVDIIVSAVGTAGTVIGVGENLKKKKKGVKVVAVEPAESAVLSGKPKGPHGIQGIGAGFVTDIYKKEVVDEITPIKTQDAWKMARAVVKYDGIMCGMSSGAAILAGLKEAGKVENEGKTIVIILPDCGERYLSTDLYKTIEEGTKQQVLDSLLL

Question: Which IC50 (EhCS1; [3]) does the source give for `CCCCCCCCCc1cc(OC(=O)c2c(CCCCCCCCC)cc(O)cc2O[C@@H]2O[C@H](CO)[C@@H](O)[C@H](O)[C@H]2O)cc(O)c1C(=O)O` [Exophillic acid] here?
Answer: 24 ± 2.9 µM

Question: What about the IC50 at 2 days [1] of the same compound?
Answer: > 100 µM

Question: What about the IC50 [2, 4] of the same compound?
Answer: > 140 µM

Question: And the IC50 [2, 5]?
Answer: > 140 µM

Question: What about the “inhibition against EhCS3” value (EhCS3) of the same compound?
Answer: no inhibition

Question: For `CN(C)[C@@H]1C(O)=C(C(N)=O)C(=O)[C@@]2(O)C(O)=C3C(=O)c4c(O)cccc4[C@@](C)(O)[C@H]3C[C@@H]12` [Tetracycline, reference compound], which IC50 (EhCS1) is on record?
Answer: 170 ± 16 µM

Question: What about the IC50 at 2 days [1] of the same compound?
Answer: 430 ± 4.3 µM

Question: What about the IC50 (EhCS3) of the same compound?
Answer: 190 ± 9.5 µM

Question: For `CC(=O)c1c(C)c(/C(O)=C2\COc3cc(O)c(O)c(C(=O)O)c3C2=O)cc2c(=O)c3c(C(=O)O)c(O)c(O)cc3oc12` [Xanthofulvin], which IC50 (EhCS1; [3]) is on record?
Answer: 7.9 ± 1.3 µM

Question: And the “semaphorin inhibitor IC50” value (semaphorin)?
Answer: 0.09 µg/mL

Question: What about the IC50 [2, 4] of the same compound?
Answer: > 170 µM

Question: And the IC50 [2, 5]?
Answer: > 170 µM

Question: What about the IC50 (EhCS3; [6]) of the same compound?
Answer: 110 ± 8.2 µM

Question: With `C[C@@]1(O)[C@H](O)c2c(c3c(=O)c4cccc(O)c4c(=O)c=3c2=[N+]=[N-])[C@H](O)[C@H]1O` [Deacetylkinamycin C] as the compound, how does the IC50 (EhCS1) read?
Answer: 21 ± 2.4 µM

Question: What about the IC50 [1] of the same compound?
Answer: 2.3 ± 0.1 µM

Question: And the IC50 [2, 4]?
Answer: 140 ± 13 µM

Question: And the IC50 [2, 5]?
Answer: 18 ± 10 µM

Question: What about the IC50 (EhCS3) of the same compound?
Answer: 22 ± 3.7 µM

Question: What does the source list for `C[C@@H]1O[C@@H](O[C@@H]2C[C@H](c3ccc4c(c3O)C(=O)C3=C(C4=O)[C@@]4(O[C@H]5CC[C@H](O)[C@H](C)O5)C(=O)C[C@](C)(O)C[C@@]4(O)C=C3)O[C@H](C)[C@H]2O)CC[C@@H]1O` [Aggreticin]?
Answer: IC50 (EhCS1; [3]): 0.98 ± 0.05 µM; IC50 at 2 days [1]: 23 ± 0.6 µM; IC50 [2, 4]: 54 ± 4.8 µM; IC50 [2, 5]: 18 ± 0.7 µM; IC50 (EhCS3; [6]): 0.64 ± 0.1 µM

Question: With `CCC[C@H]1O[C@H](CC(=O)O)CC2=C1C(=O)c1c(O)cccc1C2=O` [Deoxyfrenolicin] as the compound, how does the IC50 (EhCS1; [3]) read?
Answer: 57 ± 2 µM

Question: And the IC50 at 2 days [1]?
Answer: 4.7 ± 0.2 µM

Question: And the IC50 [2, 4]?
Answer: 1.3 ± 0.04 µM

Question: What about the IC50 [2, 5] of the same compound?
Answer: 0.5 ± 0.1 µM

Question: And the IC50 (EhCS3; [6])?
Answer: 53 ± 1.1 µM

Question: Which IC50 (EhCS1; [3]) does the source give for `C[C@@H]1O[C@@H](CC(=O)O)CC2=C1C(=O)c1c(O)cccc1C2=O` [Nanaomycin A] here?
Answer: 53 ± 3.9 µM

Question: What about the IC50 at 2 days [1] of the same compound?
Answer: 0.7 ± 0.04 µM

Question: What about the IC50 [2, 4] of the same compound?
Answer: 12 ± 0.4 µM

Question: And the IC50 [2, 5]?
Answer: 0.8 ± 0.04 µM

Question: And the IC50 (EhCS3; [6])?
Answer: 65 ± 4.4 µM

Question: Which IC50 (EhCS1) does the source give for `O=C1C=C2C(=CCOC2O)O1` (centres unmarked) [Patulin] here?
Answer: 490 ± 81 µM

Question: And the IC50 at 2 days [1]?
Answer: 110 ± 4.6 µM

Question: What about the IC50 [2, 4] of the same compound?
Answer: > 650 µM

Question: What about the IC50 [2, 5] of the same compound?
Answer: 110 ± 12 µM

Question: What about the IC50 (EhCS3) of the same compound?
Answer: 470 ± 37 µM

Question: Which IC50 (EhCS1; [3]) does the source give for `COc1cc(C)c(-c2cc(OC)cc3c2C(=O)C2=C(C3=O)C(C)(C)c3cc(O)cc(O)c3C2=O)c(OC)c1` [Naphthacemycin A9] here?
Answer: 75 ± 1.8 µM

Question: What about the IC50 at 2 days [1] of the same compound?
Answer: 16 ± 0.6 µM

Question: And the IC50 [2, 4]?
Answer: > 390 µM

Question: And the IC50 [2, 5]?
Answer: > 390 µM

Question: What about the “inhibition of EhCS3 (in words)” value (EhCS3) of the same compound?
Answer: no inhibition

Question: And the IC50 (EhCS3; [6])?
Answer: > 490 µM

Question: What does the source list for `Cc1c(O)cc2c(c1O)CO[C@@]1(CCCO1)C2=O` [Terreinol]?
Answer: IC50 (EhCS1; [3]): > 1600 µM; IC50 (EhCS3; [6]): > 1600 µM

Question: Which IC50 (EhCS1; [3]) does the source give for `Cc1cc(=O)c2c(o1)-c1c(cc(O)c(O)c1C(=O)O)OC2` [Citromycetin] here?
Answer: > 1400 µM

Question: What about the IC50 (EhCS3; [6]) of the same compound?
Answer: > 1400 µM

Question: Which results are given for Kerriamycin B?
Answer: IC50 (EhCS1; [3]): 0.63 ± 0.07 µM; IC50 (MRC-5 cells): 21 ± 0.4 µM; IC50 ([2]; read-out: Cytotoxicity against Entamoeba histolytica IC50, Cys (+), BI-S-33 medium with cysteine, anaerobic): 26 ± 1.5 µM; IC50 ([2]; read-out: Cytotoxicity against Entamoeba histolytica IC50, Cys (–), cysteine-deprived BI-S-33 medium, anaerobic): 23 ± 0.3 µM; IC50 (EhCS3; [6]): 0.31 ± 0.01 µM

From PMC4568418, “Identification of natural inhibitors of Entamoeba histolytica cysteine synthase from microbial secondary metabolites” (Frontiers in Microbiology, 2015)
